Tested on: patients with light to moderate RLS/PMLS
Assay: Double-blind, placebo controlled parallel group study with donepezil
Type: in vivo
Text: Double-blind, placebo controlled parallel group study with donepezil. In a double-blind, placebo controlled parallel study with the CEI donepezil we studied 9 patients with light to moderate RLS/PMLS (PLM index, PLMI = 3-17).

[1] = 5mg once daily, evening dose for 21 days

## COc1cc2c(cc1OC)C(=O)C(CC1CCN(Cc3ccccc3)CC1)C2 (stereo not drawn) [Donepezil, donepezil]
[1]
  change in total sleep time after treatment: no significant change
  increase of the proportion of rapid eye movement sleep after treatment: approximately 30%
  side effects during the study period: No side effects were reported
5mg once daily, evening dose for 21 days, from 8.3 to 5.3
  mean reduction of PLMI: approximately 36%
5 of 9 patients, minor change in 3 patients, one patient increased PLMI, 5mg once daily for 21 days
  Marked reduction of PLMI (reduction in 5 patients): 57-100%
9 patients (PLMI = 3-17), 5mg once daily, evening dose for 21 days, mean PLMI reduced from 8.3
  mean PLMI after treatment: 5.3

Source: patent publication EP1154795B1, “MEANS FOR TREATING AND DIAGNOSING RESTLESS LEGS SYNDROME” (priority 1998, dated 2000)
